Assay results reported in patent publication US20260158125A1, “PEPTIDE VACCINE” (ARGONAUT THERAPEUTICS LIMITED, priority 2021, published 2026).

Tested on: splenocytes (IFN y activated T cells)
Test: Immunogenicity assay: peptide vaccination and interferon gamma ELispot of splenocytes
Format: in vivo
Settings: Balb/c mice vaccinated day 0 and 7, 50 μg/peptide with polyIC and anti-CD40; splenocytes restimulated at 15 μg/ml
Description: Groups of 8 week old Balb/c mice (Charles River) were vaccinated i.v with the indicated peptide mix (Table 2), (50 μg/peptide (GenScript)) with 30 μg polyIC and 25 μg anti-CD40 mAb). As a positive control AH peptide (SPSYVYHQF SEQ ID NO: 156) vaccination was used (Huang et al., 1996). Vehicle-only mice were vaccinated with DMSO/PBS plus adjuvants as above. Mice were boosted i.v. 7 days later with the same formulation. Mice were culled 7 days post-boost and their spleens removed (4 mice per group). All animals were housed in specific pathogen-free conditions at the Biomedical Services Building (University of Oxford). All work was performed under UK Home Office license PPL PP3430109 in accordance with the UK Animal (Scientific Procedures) Act 1986. All work was performed by trained and licensed individuals.
The day before culling, Merk Multiscreen 96 well Filter Plates (Merck) were incubated with primary antibody (anti-mouse INFy mAb clone AN18, Mabtech) diluted in sterile PBS (Gibco), at 4° C. […] The splenocyte pellet was resuspended in 5 ml R10, counted and the cell concentration adjusted to 4×10^5/ml. […] The spots were quantitated on an ELISPOT counter (AID, Germany).

SPSYVYHQF (AH1 peptide) [AHI1]
immunogenicity (IFN y activated T cells, ELISpot): positive immunogenic control
